From a melting point compilation (Tetko et al.; mined from patent text by program, amines drawn as free bases though some values may be those of a salt)

Work on `Cc1cc(F)ccc1C(=C(C=O)c1nnnn1C)c1ccc(F)cc1C` yielded a melting point of 135 to 136 °C. `COc1ccc(C2=NN(CC(=O)c3ccc4ccccc4c3)C(=O)[C@H]3CCCC[C@@H]23)cc1OC` (relative stereo) gave a melting point of 89 to 90 °C. Work on `CCOC(=O)c1nnc2ccc(NC(=O)NC(Cc3ccccc3)C(=O)OC)cc2c1O` (stereo not drawn) yielded a melting point of 242 to 243 °C. For `ClCc1cn2cc(Br)ccc2n1`, the melting point was 125 to 126 °C. Compound `Nc1c(F)c(N2C[C@@H](N)[C@@H](n3ccnn3)C2)c(F)c2c1c(=O)c(C(=O)O)cn2-c1ccc(F)cc1F` (relative stereo) has a melting point of 279 to 281 °C. With `C[C@]1(CN2CCC(OCc3ccc(Cl)c(Cl)c3)CC2)Cn2cc([N+](=O)[O-])nc2O1` the melting point was 132 to 136 °C. `N#CC1CN1C(=O)NC(=O)c1cc2ccccc2o1` (stereo not drawn) showed a melting point of 190 to 192 °C. Compound `CN(C)C=NS(=O)(=O)c1c2c(O)cccc2nn1C` has a melting point of 118 to 119 °C. Compound `Nc1ccc(F)cc1Nc1ccc(F)cc1` has a melting point of 83 to 84 °C. In the case of `CCOC(=O)CC1(NC(C)=O)Cc2ccccc2C1`, the melting point is reported as 72 to 73 °C. `CC(C)(C)C#CC(O)(Cn1cncn1)C(C)(C)C` (stereo not drawn) gave a melting point of 114 to 118 °C. With `O=C(O)c1cc(Cl)ccc1OC1CCOC1=O` (stereo not drawn) the melting point was 159 to 160 °C. `CCCOc1ccccc1-c1nc2nc(OC)nnc2c(=O)[nH]1` showed a melting point of 234 to 235 °C. For `COc1ccc(C(=O)CC(SC(C)=O)C(=O)O)cc1OC` (stereo not drawn), the melting point was 110 to 112 °C. Work on `CC(C)(C)[Si](C)(C)O[C@H]1OC[C@@H](n2cnc3cc(Cl)c(Cl)cc32)[C@H](O)[C@@H]1O` yielded a melting point of 128 to 130 °C. `CCCCCCCCOc1ccc(C(=O)NNc2nc(NNC(=O)c3ccc(OCCCCCCCC)cc3O)nc(N(CCC)CCC)n2)c(O)c1` showed a melting point of 195 to 196 °C. `CCC1(CCCCCN2CCN(c3ccccn3)CC2)C(=O)Nc2ccccc21` (stereo not drawn) gave a melting point of 127 to 128 °C. `COCC(Oc1ccc(Nc2ccc(C(F)(F)F)cc2[N+](=O)[O-])cc1)C(=O)OC` (stereo not drawn) showed a melting point of 57 °C. With `NS(=O)(=O)c1ccc(-c2c(-c3ccccc3)noc2COCC(F)(F)C(F)(F)C(F)(F)CO)cc1` the melting point was 50 to 51 °C. `Cc1noc(NS(=O)(=O)c2cccc3cccnc23)c1C` gave a melting point of 176 to 178 °C. `Cc1cc(F)ccc1NC(=O)c1cc([N+](=O)[O-])ccc1NC(=O)CF` gave a melting point of 237 to 239 °C. With `Oc1ccc2c(c1)c1c(n2CCCCCN2CCCCC2)-c2ccccc2SCC1` the melting point was 182 °C. With `Cc1cc(-c2nc3ccccc3c(=O)n2-c2ccc(C(C)C)cc2)cc(C)c1OCCO` the melting point was 160 to 162 °C. Work on `CCc1nc2c(N)nc3cc(CCNS(C)(=O)=O)ccc3c2n1CC(C)(C)O` yielded a melting point of 149 to 152 °C. Compound `Cc1ccc(C2NCCc3c2[nH]c2ccccc32)cc1` (stereo not drawn) has a melting point of 207 to 209 °C. Compound `C=CCNC(=O)N=C(O)c1cc(C(=O)O)ccc1C(=O)O` has a melting point of 230 to 232 °C. Work on `CCc1onc(-c2ccccc2)c1-c1ccccc1` yielded a melting point of 85 to 87 °C. Compound `CCc1ccc(C(=NO)c2ccc(Cl)cc2)c(O)c1` has a melting point of 159 to 161 °C. For `Cc1cc(-c2ncn3c(C(F)(F)F)cc(-c4ccc(C(F)(F)F)c(C)c4)nc23)ccn1`, the melting point was 243 °C. With `c1cc(C2CCOCC2)ccn1` the melting point was 60 to 62 °C. With `CN1CC(c2ccc(Cl)cc2)=NN(c2ccc(Cl)cc2)C1=O` the melting point was 174 to 176 °C. Compound `CCCn1nc(SCCCCCC(=O)O)c(C(=O)O)c1Cc1cc2c(cc1Cl)OCO2` has a melting point of 88 °C. `Cc1ccc(NC(=O)c2ccc(C(=O)Nc3ccccc3NC(=O)OC(C)(C)C)s2)cc1Nc1nc(-c2cccnc2)cs1` gave a melting point of 218 °C. `O=c1c(-c2ccccc2O)coc2cc(O)c(Cl)cc12` showed a melting point of over 250 °C. `NC(=O)c1nnn(Cc2ccccc2)c1NC(=O)c1ccccc1` showed a melting point of 191 to 192 °C. In the case of `CCON=C(CC)C1=C(O)CC(c2ccc3c(c2)NC(=O)C(C)O3)CC1=O` (stereo not drawn), the melting point is reported as 144 to 146 °C. `COC(=O)C1=C(O)c2cc(Cl)ccc2S(=O)(=O)N1C` gave a melting point of 201 °C. Compound `CC(C)(C)[Si](C)(C)Oc1ccc2cc(Br)ccc2c1` has a melting point of 62 to 63 °C. For `Nc1ccc(CCC(=O)Nc2ccc(C(=O)c3ccccc3)cc2)cc1N`, the melting point was 156 to 157 °C. `O=[N+]([O-])c1ccc2[nH]cc(Cc3ccc(F)cc3)c2c1` showed a melting point of 142 to 144 °C. `CC(=O)Nc1cccc(OCCCCC(=O)O)c1C=O` gave a melting point of 119 to 121 °C. Compound `CCc1nn(C2CCC2)c2cc(C(=O)Nc3c(Cl)cncc3Cl)ccc12` has a melting point of 166 to 168 °C. In the case of `O=C1C(=O)c2ccccc2C2=C1SCC1(CCSCC1)O2`, the melting point is reported as 221 to 223 °C. With `N#Cc1ccc(NC(=O)c2cccc(S(=O)(=O)N3CCOCC3)c2)c(-c2n[nH]c(=O)o2)c1` the melting point was 283 to 285 °C. Compound `CCc1cnccc1C[C@@H](O)C(Cl)(Cl)Cl` has a melting point of 132 to 134 °C. `N#Cc1ccc2[nH]c(-c3ccc(Cl)c(Cl)c3)c(CCCC(=O)O)c2c1` gave a melting point of 190 to 195 °C. Work on `Cn1c(=O)[nH]c2cc3[nH]c(-c4cccnc4)nc3cc21` yielded a melting point of over 300 °C. Work on `CC(C)c1nsc(N=C(Br)N(C)C)c1C#N` yielded a melting point of 92 to 96 °C. With `COC(=O)N1CCC(CCC(=O)O)CC1` the melting point was 88 to 90 °C. Compound `Cc1nn(CC(F)(F)COC(=O)c2cccnc2)c(-c2ccc(F)cc2)c1-c1ccc2c(c1)NC(=O)CO2` has a melting point of 169 to 172 °C. Work on `CCOc1ccc(-c2nc(OC(C)=O)c(-c3ccccc3)s2)cc1` yielded a melting point of 149 to 150 °C. In the case of `CNC(=NCCCc1nc2cc(C3=NNC(=O)CC3C)ccc2[nH]1)NS(=O)(=O)c1ccccc1` (stereo not drawn), the melting point is reported as 258 to 260 °C. `CN1C(=O)CCC2(C)c3ccc(Sc4cncc5ccccc45)cc3CCC12` (stereo not drawn) gave a melting point of 161 to 163 °C. Compound `CCCCCCCCCCOc1cc2oc3c(C(=O)O)cccc3c(=O)c2cc1CCC(=O)O` has a melting point of 180 to 182 °C. With `COc1cc(C)nc2c(OC)cc(Br)cc12` the melting point was 167 to 168 °C. Compound `COC(=O)N(C)c1ccc(OCc2nc3ccccc3s2)cc1` has a melting point of 85 to 87 °C. `O=C(O)C1CC1c1cc(=O)c2ccc3ccccc3c2o1` (stereo not drawn) showed a melting point of 286 to 288 °C. `CC(C(=O)O)c1ccc2cc(OCc3csc(-c4ccccc4)n3)ccc2c1` (stereo not drawn) gave a melting point of 163 to 164 °C. Compound `CCN1C(=O)OCC1Cc1ccncc1` (stereo not drawn) has a melting point of 180 to 182 °C. `COc1ccc(S(=O)(=O)C2(C(=O)NO)CCN(Cc3ccc(Cl)c(Cl)c3)CC2)cc1` showed a melting point of 192 to 195 °C. `O=[N+]([O-])C=Cc1cc(OCc2ccccc2)c(OCc2ccccc2)cc1[N+](=O)[O-]` showed a melting point of 162 to 164 °C. `CC(C)(CCCCCCC(=O)CCCCCCC(C)(C)C(=O)O)C(=O)O` gave a melting point of 74.5 to 76 °C. In the case of `CCCCCCCCCC(=O)Nc1ccc(S(=O)(=O)Nc2nnc(C)s2)cc1`, the melting point is reported as 141 to 142 °C. With `COc1ccc(CN2CCC(c3cn(Cc4ccc(Cl)s4)c4cnccc34)CC2)cc1C(=O)O` the melting point was 125 to 127 °C. With `NC(=O)[C@@H]1[C@H](NC(=O)/C(=N\OCC(=O)OCc2ccc([N+](=O)[O-])cc2)c2csc(NC(=O)CCl)n2)C(=O)N1OCC(=O)OCc1ccc([N+](=O)[O-])cc1` the melting point was 147 to 153 °C. With `COC(=O)c1ccc(-c2nc(-c3ccccc3)co2)cc1` the melting point was 175 to 176 °C. Compound `Cc1cccc(-c2cccc(OC3SCC(O)C(O)C3O)c2)n1` (stereo not drawn) has a melting point of 143 °C. In the case of `COC(=O)COc1ccc(SCc2ccc(-c3ccc(C(F)(F)F)cc3)cc2)c2c1CCCO2`, the melting point is reported as 122 to 124 °C. `CC1(C)NCC(O)(c2ccccc2)CN1` showed a melting point of 108 °C. With `CCCc1c(OCCCCCCc2ccc(CCCCC(=O)O)cc2CCC(=O)O)ccc2c1OCCC2=O` the melting point was 108 to 109 °C. In the case of `CCCCCCCCCCCC(=O)NCCCCCC(=O)O`, the melting point is reported as 85 to 86 °C. Work on `CC(CCCCc1ccccc1)c1cc(O)c2c(c1)OC(C)(C)C1CCC(=O)C=C21` (stereo not drawn) yielded a melting point of 204 to 208 °C. Compound `COc1ccc(S(=O)(=O)N(CC(N)=O)c2c(CCc3ccccc3)cccc2OC)cc1OC` has a melting point of 244 °C. With `CCOc1nn(Cc2ccc(OCc3ccc(-c4ccccc4)nc3)cc2)cc1CCC(=O)O` the melting point was 140 to 141 °C. For `O=C(O)c1cccc2[nH]cc(Cc3ccc(OCc4ccc5ccccc5n4)cc3)c12`, the melting point was 209 to 211 °C. For `OC1OC(C2(c3ccccc3)CN2)N2CC12c1ccccc1` (stereo not drawn), the melting point was 53 to 55 °C. In the case of `O=C(Nc1cnccn1)c1cn(-c2ccccc2)c2ccccc2c1=O`, the melting point is reported as 298 to 300 °C. Compound `OC(CCn1ccnc1)c1ccccc1` (stereo not drawn) has a melting point of 106 to 108 °C. Compound `Cc1[nH]n(C2CCCC2C)c2nc(-c3ccncc3)nc(=O)c1-2` (stereo not drawn) has a melting point of 290 to 291 °C. For `CC(=NN(C)c1ccc(C(F)(F)F)cc1)C(=O)NCc1ccc(Cl)cc1`, the melting point was 112 to 113 °C. For `COc1ccc2c(c1)C(CCNC(C)=O)CCO2` (stereo not drawn), the melting point was 138 °C. Compound `CCOC(=O)NN=C(c1cccnc1)C1COCOC1` has a melting point of 132 °C. `CSc1nc(N)n(C(=O)c2ccc(Cl)cc2)n1` showed a melting point of 175 to 177 °C. Work on `COc1cccc2c1nc(C(F)F)n2-c1nc(-c2cncnc2)cc(N2CCOCC2)n1` yielded a melting point of 222 to 224 °C. For `C=C(C)c1ccccc1C(=O)O`, the melting point was 71.6 to 72.5 °C. Work on `O=C(NC1CCSC2COCC(C(=O)O)N2C1=O)C(S)Cc1ccccc1` (stereo not drawn) yielded a melting point of 224 to 226 °C. `CCn1c(=O)n(-c2ccc(-n3ccn4c5ccccc5nc34)cc2)c2ncccc21` gave a melting point of 220 to 221 °C. Work on `CCCCC(=O)N(Cc1ccc(OC(F)(F)F)cc1)c1cc(Cl)cc(-c2nnn[nH]2)c1` yielded a melting point of 177 to 180 °C. `Cc1ncc(C#N)c(Nc2cccc3[nH]ccc23)c1-c1ccc(OCCCl)cc1` showed a melting point of 185 to 186 °C. Compound `Clc1cc(N2CCNCC2)ccn1` has a melting point of 119 to 120 °C. `CCC1CN(c2c(F)cc3c(=O)c(C(=O)O)cn(C4CC4F)c3c2OC)CC1(C)N` (stereo not drawn) showed a melting point of 113 to 115 °C. `O=C(Nc1ccccn1)C(CC1CCCC1)c1ccc(C(F)(F)F)c(F)c1` (stereo not drawn) gave a melting point of 40 to 44 °C. In the case of `COc1ccc2nc(NC(=O)C(CC3CCCC3)c3ccc(S(=O)(=O)N(C(C)C)C(C)C)cc3)sc2n1` (stereo not drawn), the melting point is reported as 83 to 85 °C. For `CCSC1c2cccc(O)c2C(=O)c2c(O)cccc21`, the melting point was 117 to 118 °C. With `O=S(=O)(Cc1ccccc1)c1c[nH]c2ccccc12` the melting point was 153 to 155 °C. Work on `COC(=O)CCCC(=O)N(CCc1c[nH]c2ccccc12)CC1CC1` yielded a melting point of 99 to 100 °C. `CC(C)NCC(O)COc1ccc2ncsc2c1` (stereo not drawn) showed a melting point of 132 to 134 °C. Work on `CCc1cccc(NC(=O)NCC(=O)N(CC(=O)N(C)c2ccccc2)c2ccccc2)c1` yielded a melting point of 105 °C.
